Results from PMC11365140 (Cell & Bioscience, 2024).
“Also recorded” adds a separate entry of the source. Bridge positions count the residues as written; N and C are the ends. Ends that are not written are not given here.

Assays:
αTC1-9 cells = assay: Glucagon secretion from αTC1-9 cells; type: cell-based, mouse; settings: 100 nM, 1 h, 16.8 mM glucose, 5 × 10^4 cells/well; HTRF; 3 technical replicates (Fig. 3F)
Method: (§1) Cell culture and hormone secretion
(§2) The INS-1E cells were cultured in RPMI 1640 supplemented with 10% FBS, the αTC1-9 cells were cultured in low glucose DMEM supplemented with 10% FBS and the MIN6 cells were cultured in high glucose DMEM supplemented with 10% FBS. Cells were grown in 96-well plates at a density of 5 × 10^4 cells (INS-1E and αTC1-9) or 2 × 10^4 cells (MIN6) per well. After preincubation for 30 min at 37 °C in KRBB, the cells were incubated with either 0.1% DMSO or compounds for 1 h at 37 °C in KRBB containing either 16.8 mM or 2.8 mM glucose. […] For co-culturing of INS-1E and αTC1-9 cells, RPMI 1640 supplemented with 10% FBS was used, both cell densities were 2.5 × 10^4 cells per well in 96-well plates.

[1] = test system: co-culture of INS-1E and αTC1-9 cells; assay: Glucagon secretion from co-cultured INS-1E and αTC1-9 cells; type: cell-based, rat (INS-1E) and mouse (αTC1-9); settings: 100 nM, 1 h, 16.8 mM glucose, both 2.5 × 10^4 cells/well (Fig. 3G)
Method: as §1, §2

[2] = test system: pancreas of mouse and rat, and the α cell line InR1G9; settings: cited from earlier work
Text: However, this regulatory mechanism is impaired in individuals with type 1 diabetes. Compared to wild-type mice, V1b receptor k ...

C57BL/6J mice [3] = assay: Plasma insulin in OGTT; type: in vivo, mouse; settings: AVP 1 mg/kg i.p.; blood 15 min after glucose administration; ELISA; 4 mice/group (Fig. 5C)
Method: (§3) Oral glucose tolerance test and insulin detection
(§4) For oral glucose tolerance test (OGTT), mice were fasted overnight and then given either 0.1% DMSO in normal saline (vehicle) or 1 mg/kg AVP and 10 mg/kg Exendin (9–39) (n = 8 per treatment group) via intraperitoneal injection. A glucose bolus was delivered (1.5 g/kg orally) 15 min later. Blood was collected from a tail nick at designated time points, and plasma glucose levels were determined with a glucose meter. To detect insulin level, blood was collected from the retro-orbital plexus of mice 15 min after glucose administration (n = 4 per treatment group) and detected with an ELISA kit for mouse insulin (Crystal Chem, #90080).

isolated mouse islets [4] = assay: Insulin secretion from isolated mouse islets; type: cell-based, mouse (C57BL/6J); settings: for insulin secretion from isolated islets: 2 h
isolated mouse islets [5] = assay: Glucagon secretion from isolated mouse islets; type: cell-based, mouse (C57BL/6J)
Method: Hormone secretion from isolated islets
Islets were isolated from anesthetized male C57BL/6J mice (8 wk old). 1 mg/mL Collagenase P (Roche, #11213873001) solution was injected into the pancreas via the bile duct, and the pancreas was digested at 37 °C for 15 min. The mixture was centrifuged at 800 rpm for 3 min to collect the precipitate, which was then washed three times with HBSS (5.4 mM KCl, 0.3 mM Na2HPO4, 0.4 mM KH2PO4, 4.2 mM NaHCO3, 1.3 mM CaCl2, 0.5 mM MgCl2, 0.6 mM MgSO4, 137 mM NaCl, 5.6 mM D-glucose, pH 7.4). Then, the precipitate was re-suspended in HBSS and filtered through a 70 μm filter to obtain islets. The detached islets were cultured overnight in RPMI 1640 supplemented with 10% fetal bovine serum (FBS). The islets were transferred to 48-well plates and starved with KRBB (118.5 mM NaCl, 2.54 mM CaCl2, 1.19 mM KH2PO4, 4.74 mM KCl, 25 mM NaHCO3, 1.19 mM MgSO4, 10 mM HEPES, pH 7.4) containing 0.5% BSA for 60 min. Subsequently, the islets were incubated with 0.1% dimethyl sulfoxide (DMSO) or compounds for a duration of 2 h at 37 °C in 1 mL KRBB containing 16.8 mM or 2.8 mM glucose. Supernatants were collected, and the insulin concentrations were measured using HTRF Insulin kit (Cisbio, #62INSPEC) and an Envision Plate Reader (PerkinElmer).

[6] = test system: co-culture of INS-1E and αTC1-9 cells; assay: Insulin secretion from co-cultured INS-1E and αTC1-9 cells; type: cell-based, rat (INS-1E) and mouse (αTC1-9); settings: 1 h
Method: as §1, §2
Specific sequences of shRNAs (Table 1) targeting GCGR or GLP-1R mRNA were constructed into pLKO.1 puro lentiviral vector (Addgene, #8453). Lentiviral vectors and packaging vectors were transfected into HEK293T cells by FuGENE HD Transfection Reagent (Promega, #E2312) to produce virus particles. INS-1E cells were seeded onto 6-well plates at a density of 5 × 10^5 cells per well and incubated with viruses and 5 μg/mL polybrene for 48 h. Transfected INS-1E cells were collected for real-time qPCR and co-culture experiments.

MIN6 cells = assay: Insulin secretion from MIN6 cells; type: cell-based, mouse; settings: 100 nM, 1 h, 37 °C, 16.8 mM glucose, 2 × 10^4 cells/well; HTRF; 3 technical replicates (Fig. 1F)
Method: as §1, §2

islet β cells = settings: cytokine-induced apoptosis; cited from earlier work
Text: (§5) AVP regulates the hypothalamic-pituitary-adrenal (HPA) axis, stimulating the release of corticotropin-releasing hormone (CRH) through V1bR activation, thereby promoting CRH-induced insulin secretion.

[7] = test system: mouse and rat pancreas, and isolated mouse islets; settings: mouse and rat pancreas, and isolated mouse islets; cited from earlier work
Text: as §5

C57BL/6J mice [8] = assay: Oral glucose tolerance test (OGTT), blood glucose; type: in vivo, mouse; settings: AVP 1 mg/kg i.p., 15 min before 1.5 g/kg oral glucose; 8 mice/group (Fig. 5A, 5B)
Method: as §3, §4

INS-1E cells = assay: Insulin secretion from INS-1E cells; type: cell-based, rat; settings: 100 nM, 1 h, 37 °C, 16.8 mM glucose, 5 × 10^4 cells/well; HTRF; 3 technical replicates (Fig. 1E)
Method: as §1, §2

## Arginine vasopressin (CYFQNCPRG-NH2; disulfide 1-6; ends not checked; UniProt P01185 20-28, looked up) [AVP, neuropeptide composed of nine amino acids]
αTC1-9 cells
  glucagon secretion from αTC1-9 cells: could induce glucagon release from αTC1-9 cells
[1]
  glucagon secretion from co-culture: induce secretion of glucagon and insulin in high-glucose condition
[2]
  glucagon secretion: stimulate glucagon secretion
C57BL/6J mice [3]
  plasma insulin in OGTT: significantly stimulated the release of insulin
Isolated mouse islets [4]; 100 nM, AVP compared with GLP-1, 3 technical replicates (Fig. 1D)
  insulin secretion from isolated islets: stimulated similar level of glucose-dependent insulin secretion from freshly isolated islets as GLP-1
Isolated mouse islets [4]; 100 nM, low (2.8 mM) and high (16.8 mM) glucose (Fig. 3D, 3E)
  insulin secretion from isolated islets, glucose dependence: only induced insulin secretion from the islets in high-glucose medium
Isolated mouse islets [4]; various concentrations of AVP, 37 °C, 10 islets/well, 16.8 mM glucose KRBB, HTRF, mean ± SEM, 3 technical replicates (Fig. 1A)
  insulin secretion from isolated islets: induced insulin secretion in a dose-dependent manner in high glucose condition
Isolated mouse islets [5]; AVP (100 nM), low (2.8 mM) and high (16.8 mM) glucose (Fig. 3C)
  glucagon secretion from isolated islets, glucose dependence: induced glucagon secretion from the isolated islets in low- and high-glucose conditions
Isolated mouse islets [5]; various concentrations of AVP, 2 h, 16.8 mM glucose, 10 islets/well, 3 technical replicates (Fig. 3A)
  glucagon secretion from isolated islets: induced dose-dependent secretion of glucagon
[6]; 100 nM, 16.8 mM glucose, both 2.5 × 10^4 cells/well (Fig. 3H)
  insulin secretion from co-culture: induce secretion of glucagon and insulin in high-glucose condition
[6]; INS-1E infected with shRNA-Gcgr, AVP (1 nM), 16.8 mM glucose (Fig. 4K)
  AVP-induced insulin secretion from co-culture after Gcgr knockdown: no significant effect
[6]; INS-1E infected with shRNA-Glp1r, AVP (1 nM), 16.8 mM glucose (Fig. 4L)
  AVP-induced insulin secretion from co-culture after Glp1r knockdown: significantly attenuated AVP-induced insulin secretion
MIN6 cells
  insulin secretion from MIN6 cells: failed to induce insulin release
Islet β cells
  protection of islet β cells: confer protection on islet β cells against cytokine-induced apoptosis
[7]
  insulin secretion: enhance insulin secretion
C57BL/6J mice [8]
  blood glucose levels during OGTT: significantly lowered blood glucose levels during the OGTT
INS-1E cells
  insulin secretion from INS-1E cells: failed to induce insulin release; also recorded: could not directly induce insulin secretion from INS-1E cells
